One experiment concerns T-cell. Put plainly: Tested for inhibition of T cell proliferation in the co-mitogen stimulated proliferation assay. Particulars: Homo sapiens. The format is functional, cell-based.
A further experiment has as its system Mus musculus. In words: Mean Survival time of the graft was evaluated in murine skin allograft transplantation assay upon intraperitoneal administration of 4 mg/kg dose. Type of experiment: functional.

`CO[C@H]1C[C@@H]2CC[C@@H](C)[C@@](O)(O2)C(=O)C(=O)N2CCCC[C@H]2C(=O)O[C@H]([C@H](C)C[C@@H]2CC[C@@H](O)[C@H](OC)C2)CC(=O)[C@H](C)/C=C(\C)[C@@H](OC(=O)CCCCCNc2ccc(N=[N+]=[N-])cc2[N+](=O)[O-])[C@@H](OC)C(=O)[C@H](C)C[C@H](C)/C=C/C=C/C=C/1C`: the IC50 (usually the midpoint of a concentration-inhibition curve) in the experiment on T-cell was determined as 7.8 nM.

Turning to `CO[C@H]1C[C@@H]2CC[C@@H](C)[C@@](O)(O2)C(=O)C(=O)N2CCCC[C@H]2C(=O)O[C@H]([C@H](C)C[C@@H]2CC[C@@H](OC(=O)CCCCCCCNc3ccc(N=[N+]=[N-])cc3[N+](=O)[O-])[C@H](OC)C2)CC(=O)[C@H](C)/C=C(\C)[C@@H](O)[C@@H](OC)C(=O)[C@H](C)C[C@H](C)/C=C/C=C/C=C/1C`, the half-inhibitory concentration (IC50) with T-cell was 10.2 nM.

The compound `CO[C@H]1C[C@@H]2CC[C@@H](C)[C@@](O)(O2)C(=O)C(=O)N2CCCC[C@H]2C(=O)O[C@H]([C@H](C)C[C@@H]2CC[C@@H](OC(=O)Cc3ccc(N=[N+]=[N-])cc3)[C@H](OC)C2)CC(=O)[C@H](C)/C=C(\C)[C@@H](O)[C@@H](OC)C(=O)[C@H](C)C[C@H](C)/C=C/C=C/C=C/1C` registered an MST in the experiment with Mus musculus of 10.7 days. Further, the half-inhibitory concentration (IC50) in the experiment on T-cell is 1 nM.

`CO[C@H]1C[C@@H]2CC[C@@H](C)[C@@](O)(O2)C(=O)C(=O)N2CCCC[C@H]2C(=O)O[C@H]([C@H](C)C[C@@H]2CC[C@@H](OC(=O)Cc3ccc(N=[N+]=[N-])c(I)c3)[C@H](OC)C2)CC(=O)[C@H](C)/C=C(\C)[C@@H](O)[C@@H](OC)C(=O)[C@H](C)C[C@H](C)/C=C/C=C/C=C/1C` displayed an MST with Mus musculus of 12.7 days. In the experiment on T-cell, the half-inhibitory concentration (IC50) came to 3 nM.

`CO[C@H]1C[C@@H]2CC[C@@H](C)[C@@](O)(O2)C(=O)C(=O)N2CCCC[C@H]2C(=O)O[C@H]([C@H](C)C[C@@H]2CC[C@@H](O)[C@H](OC)C2)CC(=O)[C@H](C)/C=C(\C)[C@@H](OC(=O)Cc2ccc(N=[N+]=[N-])cc2)[C@@H](OC)C(=O)[C@H](C)C[C@H](C)/C=C/C=C/C=C/1C` came in with an IC50 in the experiment with T-cell of 5.8 nM.

`CO[C@H]1C[C@@H]2CC[C@@H](C)[C@@](O)(O2)C(=O)C(=O)N2CCCC[C@H]2C(=O)O[C@H]([C@H](C)C[C@@H]2CC[C@@H](O)[C@H](OC)C2)CC(=O)[C@H](C)/C=C(\C)[C@@H](OC(=O)CCCCCCCNc2ccc(N=[N+]=[N-])cc2[N+](=O)[O-])[C@@H](OC)C(=O)[C@H](C)C[C@H](C)/C=C/C=C/C=C/1C` gave a concentration for half-maximal inhibition (IC50) with T-cell of 10.5 nM.

As to `CO[C@H]1C[C@@H]2CC[C@@H](C)[C@@](O)(O2)C(=O)C(=O)N2CCCC[C@H]2C(=O)O[C@H]([C@H](C)C[C@@H]2CC[C@@H](OC(=O)CCCCCNc3ccc(N=[N+]=[N-])cc3[N+](=O)[O-])[C@H](OC)C2)CC(=O)[C@H](C)/C=C(\C)[C@@H](O)[C@@H](OC)C(=O)[C@H](C)C[C@H](C)/C=C/C=C/C=C/1C`, in the experiment with T-cell, it took 2.5 nM to reach half-maximal inhibition (IC50).

Take `CO[C@H]1C[C@@H]2CC[C@@H](C)[C@@](O)(O2)C(=O)C(=O)N2CCCC[C@H]2C(=O)O[C@H]([C@H](C)C[C@@H]2CC[C@@H](O)[C@H](OC)C2)CC(=O)[C@H](C)/C=C(\C)[C@@H](O)[C@@H](OC)C(=O)[C@H](C)C[C@H](C)/C=C/C=C/C=C/1C` [SIROLIMUS]: the MST in the experiment on Mus musculus amounted to 12.01 days. The compound also had an IC50 with T-cell of 9.8 nM.

For the origin of these results see ChEMBL document CHEMBL1128753, “Synthesis and bioactivity of photolabile sirolimus (rapamycin) analogs” (Bioorg Med Chem Lett, 1995).
